{
  "source": "patent US20200000798A1",
  "about": "“PROCESS FOR […] ALKALOID FRACTION OF R[…] (HERB.) TRAUB AND USES THEREOF” (UNIVERSIDADE FEDERAL DO RIO GRANDE DO SUL-UFRGS, priority 2013, published 2020)",
  "key": {"[1]": {"system": "collagen type II-induced arthritis in DBA/1J mice", "experiment": "Collagen-induced arthritis (CIA) model with prophylactic treatment", "type": "in vivo", "method": "The chronic arthritis model most widely used in the world literature is the model of collagen type II-induced arthritis (CIA). Said model shares many pathological features with the disease, such as type II collagen (CM), the major cartilage protein and one of the potential RA self-antigens. […]\nAfter the boost injection, treatment at dosages of 0.05; 0,25 and 0.5 mg/kg was started and continued for 15 days (twice daily, intraperitoneally) and animals were monitored daily for clinical signs of the disease.\nAnimals were monitored daily for analyzing the clinical signs of arthritis by means of the severity score as follows: 0—no signs of disease; 1—mild erythema and edema; 2—moderate erythema and edema; 3—severe erythema and edema extending from the knee to the metatarsus; 4—severe erythema and edema with loss of function. […]\nThe tibio-tarsal joints of DBA/1 J animals were isolated and immersed in 10% buffered formalin for fixation for 24 hours. […] All the cuts were assessed under a microscope by two blinded observers, and the images captured by digital camera."}, "[2]": {"system": "lymphocytes from draining lymph nodes", "experiment": "Lymphocyte viability test (MTT)", "type": "cell-based", "conditions": "48 hours", "method": "A lymphocyte viability test was performed to evaluate the cytotoxicity of montanine using a colorimetric MTT [3-(4,5-dimethylthiazol-2-yl)-2,5-diphenyl tetrazolium bromide] assay, as described by Tomita T. et al. 2006. Animals were euthanized and their draining lymph nodes (popliteal and inguinal) were removed aseptically. A single cell suspension was prepared, grown in triplicate (5×10^5 cells/well in a 96 well plate) and treated with montanine at the dosages (0.01 μM, 0.1 μM, 1 μM, 10 μM and 100 μM) for 48 hours at 37° C. at 5% CO2 in RPMI medium. After incubation, MTT (0.5 mg/ml) was added to each well and the plate was placed in the stove again and after 4 hours the supernatant was removed and 50 μI of dimethyl sulphoxide (DMSO, Sigma) were added. After the plate was shaken to dissolve the MTT formazan crystals, optical density (OD) of each well was measured at 570 nm using a microplate ELISA reader."}, "healthy mice": {"system": "healthy mice", "experiment": "Immunosuppression assay in healthy animals (complete blood count)", "type": "in vivo", "conditions": "0.5 or 1.5 mg/kg every 12 hours for 3 days, then 3 days without treatment", "method": "An immunosuppression assay in healthy animals was performed to assess the role of montanine as an immunosuppressive agent. 20 male, healthy mice of 8-12 weeks of age were used for examining the whole blood (complete blood count—parameters of: total of white blood cells (WBC); % lymphocytes (Lin %), lymphocytes/mm3 (Lin mm30; % monocytes (Mon %); monocytes/mm3 (Mon mm3); % granulocytes (Gran %); granulocytes/mm3 (Gran/mm3); total of red blood cells (RBC); hemoglobin (HGB) and total of platelets (PLQ)) of animals, which were divided as follows: healthy animals (with no treatment given) (n=4), animals treated with 0.5 or 1.5 mg/kg de montanine/12-12 hours (n=8/group). Whole blood was collected at day 0 for basal analysis of the blood parameters of the complete blood count in all animals, they were then treated for 3 days with the two doses and on the third day blood was collected again for complete blood count analysis; also, animals were still alive for three more days without any treatment for a new blood collection (FIG. 9)."}, "[3]": {"system": "mBSA-induced arthritis in Balb-C mice", "experiment": "Antigen-induced arthritis (AIA) model, mBSA-induced monoarthritis", "type": "in vivo", "method": "Antigen-induced arthritis (AIA) is an animal model of arthritis that is broadly described and used in worldwide literature. One of the inducing antigens in this model in Balb-C mice is methylated bovine serum albumin (mBSA), which, after systemic immunization (subcutaneous injection) is injected into the joint.\nBriefly, mice were immunized in three steps with mBSA (day-0, day-7 and day-14), the first step comprising […] of mBSA protein in an emulsion of 0.1 mL of complete Freund's adjuvant's (CFA) and 0.1 mL of sterile saline solution (0.9% sodium chloride), the second and third steps were performed with the same protein concentration, the same sterile saline solution concentration and the same adjuvant concentration, but in these steps incomplete Freund's adjuvant (IFA) was used; 3 weeks after the first immunization (day 21) mBSA at a concentration of 30 ug/mL were injected into the femorotibial joint (knee) and the contralateral knee was administered with sterile saline only and serves as the control of the experiment (Grespan et al. 2008). […] Treatment with montanine was given twice daily, one day before intra-articular challenge, at the day of the challenge and at day of death, by intraperitoneal route and diluted in saline. Doses tested were 0.3; 1; 3 mg/kg. One group of animals received the treatment vehicle (saline) for control purposes, said group being designated positive control. The experiment is terminated at day 22 (24 hours after challenge and treatment) when animals were euthanized to collect the joint lavage fluid. Lavage was performed using a PBS-EDTA solution and then the number of leukocytes existing in the joint was counted in a Neubauer chamber at a 1:2 dilution with Turk's solution. Furthermore, pain of the animals was assessed in a digital analgesia-meter (von Frey) prior to intra-articular injection at time 0 (zero), 3, 5 and 24 hours after intra-articular challenge."}, "synovial fibroblasts": {"system": "synovial fibroblasts", "experiment": "Synovial fibroblast invasion test (matrigel inserts)", "type": "cell-based", "conditions": "1 μM, 24 h, five lines tested, vs DMSO vehicle", "method": "To evaluate the invasion of synovial fibroblasts into matrigel inserts (collagen matrix) a BD kit (Franklin Lakes, N.J., USA) was used, and the test was performed in accordance with the manufacturer specifications.\nWhen cells reached 70-80% confluence, they were trypsinized with trypsin-EDTA for digestion. Then, 2×10^4 cells were resuspended in 500 μI of free culture medium of fetal calf serum and placed on top of the insert. Montanine at a dose of 1 μM or the same concentration of vehicle (DMSO) was added on top of the insert with the cells. At the lower compartment 750 μI of culture medium with 10% fetal bovine serum was added. The plate was incubated at 37° C. for 24 h in a stove with 5% CO2. After the incubation period, the top of the chamber was cleaned with a swab, stained with crystal violet dye, and the total number of cells that invaded the Matrigel membrane was counted in an optical microscope at 100× magnification. Experiments were performed in duplicate."}, "lymphocyte migration": {"system": "lymphocyte migration", "conditions": "100 micrograms/mL, vs placebo; cited from earlier work"}, "[4]": {"system": "collagen type II-induced arthritis in DBA/1J mice", "experiment": "Collagen-induced arthritis (CIA) model with therapeutic treatment", "type": "in vivo", "method": "CIA induction is performed by following the aforementioned protocol.\nAfter the boost injection, animals were monitored daily for clinical signs of the disease and treatment with montanine at 0.5 and 1.5 mg/kg is started on the day of clinical detection of CIA. Animals given sterile saline, the treatment vehicle, were deemed as the positive control group, i.e. untreated. The drug was administered twice daily for 10 days by the intraperitoneal route.\nAnimals were monitored daily for analyzing the clinical signs of arthritis by means of the severity score as follows: 0-no signs of disease; 1-mild erythema and edema; 2-moderate erythema and edema; 3-severe erythema and edema extending from the knee to the metatarsus; 4-severe erythema and edema with loss of function. The total score is the average of the scores on the legs from the onset of the disease.\nArticular hypernociception was assessed as previously described by Pinto LG et al. 2010. For this model, a polypropylene tip was adapted to the manual force transducer, a force was applied on the subplantar surface of the paw producing tibiotarsal bending motion. The automatic pressure meter recorded the strength of the applied force when the paw is removed. The assay is repeated 3 times sequentially to provide a consistent measurement, the limiar being expressed in grams (g).\nThe tibio-tarsal joints of DBA/1 J animals were isolated and immersed in 10% buffered formalin for fixation for 24 hours. Then, tissues were decalcified in 10% trichloroacetic acid (TCA) for approximately 18 hours. These tissues were dehydrated and embedded in paraffin blocks. Six pm-thick cuts were arranged on a microscope slide. […] All the cuts were assessed under a microscope by two blinded observers, and the images captured by digital camera."}, "[5]": {"system": "lymphocytes from draining lymph nodes", "experiment": "Lymphocyte proliferation assay (MTT), LPS or ConA stimulated", "type": "cell-based, BALB/c mice", "conditions": "1 μM, 48 h", "method": "The in vitro lymphocyte proliferation was performed using the MTT colorimetric assay described by Tomita T et al. 2006. BALB/c mice were euthanized and their draining lymph nodes were removed aseptically. A single cell suspension was prepared, grown in triplicate (5×10^5 cells/well in a 96 well plate) and treated with montanine at the dosages of 1 μM for 48 h at 37° C. at 5% CO2 in RPMI medium containing […] lipopolysaccharide (LPS) or […] of conconavalin A (ConA) or RPMI medium alone as a culture control. After incubation, MTT (0.5 mg/ml) was added to each well and the plate was placed in the stove again and after 4 hours the supernatant was removed and 50 μI of dimethyl sulphoxide (DMSO, Sigma) were added. […] After the plate was shaken to dissolve the formazan crystals, optical density (OD) of each well was measured at 570 nm.\nLPS acts primarily on the B cell receptor and the Toll-like receptor 4 (TLR4), molecules that are present on the surface of B lymphocytes, thus acting on these cells. ConA acts on several receptors containing glycoproteins or lipoproteins, stimulating both lymphocytes both but acting preferably on T lymphocytes."}, "[6]": {"conditions": "0.5 mg/kg i.p. twice daily for 10 days"}},
  "data": [
    {"compound": "CO[C@H]1C=C2[C@H]3C[N@@](Cc4cc5c(cc43)OCO5)[C@H]2C[C@@H]1O", "note": "[montanine]", "values": [
      {"measurement": "histological parameters of the joint", "setting": "[1]; 0.5 mg/kg i.p. twice daily for 15 days", "result": "improved all the histological parameters of the joint, except for synovial hyperplasia"},
      {"measurement": "arthritis clinical score", "setting": "[1]; 0.25 and 0.5 mg/kg i.p. twice daily, from day 8 of treatment", "result": "reduced clinical score"},
      {"measurement": "lymphocyte viability", "setting": "[2]; 0.01 μM, 0.1 μM and 1 μM", "result": "did not alter cell viability"},
      {"measurement": "lymphocyte viability", "setting": "[2]; 10 μM", "result": "no significant difference between the cell group and the group treated with the montanine at 10 μM, however, decreased cell viability can be seen"},
      {"measurement": "lymphocyte viability", "setting": "[2]; 100 μM", "result": "decreased cell viability can be seen, which was higher in the 100 μM dose"},
      {"measurement": "highest dose that did not exhibit any cytotoxic effects on the cells", "setting": "[2]; lymphocytes, MTT", "result": 1, "unit": "µM"},
      {"measurement": "immunosuppression (complete blood count)", "setting": "healthy mice", "result": "does not lead to immunosuppression in any of the tested dosages"},
      {"measurement": "pain (joint hypernociception), onset of decrease", "setting": "[3]; 3 mg/kg i.p. twice daily", "result": "decrease as of 3 hours"},
      {"measurement": "pain (joint hypernociception, von Frey)", "setting": "[3]; 0.3, 1, 3 mg/kg i.p. twice daily, 0, 3, 5 and 24 hours after intra-articular challenge", "result": "reduction in pain at all tested doses"},
      {"measurement": "total leukocyte migration to the femorotibial joint", "setting": "[3]; 0.3, 1, 3 mg/kg i.p., 24 hours after challenge, compared with saline group", "result": "significantly reduced at all three doses"},
      {"measurement": "invasion of synovial fibroblasts", "setting": "synovial fibroblasts", "result": "reduced the invasion of synovial fibroblasts of the five lines tested"},
      {"measurement": "anti-inflammatory effect on the lymphocyte migration model", "setting": "lymphocyte migration", "result": "unable to generate a different effect than the placebo"},
      {"measurement": "arthritis clinical score", "setting": "[4]; 0.5 mg/kg i.p. twice daily", "result": "reduction of the clinical score from the third day of treatment"},
      {"measurement": "histological parameters of the joint", "setting": "[4]; [6]", "result": "improved all the histological parameters, except for synovial hyperplasia"},
      {"measurement": "pain (articular nociception)", "setting": "[4]; [6]", "result": "reduced pain"},
      {"measurement": "lymphocyte proliferation stimulated by ConA", "setting": "[5]; ConA", "result": "significantly decreased"},
      {"measurement": "lymphocyte proliferation stimulated by LPS", "setting": "[5]; LPS", "result": "had no effect"}
    ]}
  ]
}
